Where “and” joins values, the source holds several entries; their conditions need not be identical. Equal values may be shown once. One block for each molecule: values may come before it. Calls of active or inactive are those of the source. The calls are words filed in the database; no cut-off is given here.
What was measured:
[1] = Metabolic stability in human liver microsomes assessed as half life; type: ADME, Microsome
[2] = Cmax in rat at 3 mg/kg, sc; type: ADME, organism-based; parameters: route subcutaneous, dose 3 mg/kg; conditions: in vivo
[3] = Oral bioavailability in rat; type: ADME, organism-based; conditions: in vivo
[4] = AUC in rat at 3 mg/kg, sc; type: ADME, organism-based; parameters: dose 3 mg/kg; conditions: in vivo
[5] = Oral bioavailability in mouse; type: ADME, organism-based; conditions: in vivo
[6] = AUC in rat at 3 mg/kg, po; type: ADME, organism-based; parameters: dose 3 mg/kg; conditions: in vivo
[7] = target: 5-hydroxytryptamine receptor 7 (Rattus norvegicus, UniProt P32305); experiment: Displacement of [3H]-CT from rat 5-HT7 receptor expressed in HEK293 cells by competitive radioligand binding assay; type: cell-based
[8] = Half life in non-human primates at 5 mg/kg, po; type: ADME, organism-based; conditions: in vivo
[9] = Cmax in non-human primates at 5 mg/kg, po; type: ADME, organism-based; parameters: route oral, dose 5 mg/kg; conditions: in vivo
[10] = Clearance in rat at 3 mg/kg, sc; type: ADME, organism-based; conditions: in vivo
[11] = Cmax in rat at 3 mg/kg, po; type: ADME, organism-based; parameters: route oral, dose 3 mg/kg; conditions: in vivo
[12] = Toxicity in rat assessed as effect on body temperature at 0.03 to 1 mg/kg, po; type: organism-based; conditions: in vivo, dose 0.03-1 mg/kg
[13] = Tmax in rat plasma at 10 mg/kg, po; type: ADME, organism-based
[14] = In vivo antagonist activity at 5-HT2A receptor in po dosed mouse assessed as inhibition of DOI-induced head twitch measured after 60 mins; type: functional; conditions: 1 h
[15] = Ratio of plasma concentration that yields to require for inhibition of alpha1 adrenergic receptor-mediated mydriasis in phenylephrine-stimulated rat to MED for inhibition of 5-HT7 receptor mediated hypothermia in po dosed 5-CT-stimulated rat; type: organism-based
[16] = AUC in rat brain at 10 mg/kg, po; type: ADME, organism-based; parameters: dose 10 mg/kg
[17] = Cmax in rat plasma at 10 mg/kg, po; type: ADME, organism-based; parameters: route oral, dose 10 mg/kg
[18] = Cmax in rat brain at 10 mg/kg, po; type: ADME, organism-based; parameters: route oral, dose 10 mg/kg
[19] = system: Rattus norvegicus; experiment: In vivo antagonist activity at 5-HT7 receptor in rat assessed as maximal inhibition of 5-CT induced hypothermia at 0.3 mg/kg, po compound administered 20 mins prior to 5-CT injection; type: functional, organism-based
[20] = Oral bioavailability in dog; type: ADME, organism-based, Canis lupus familiaris; conditions: in vivo
[21] = target: 5-hydroxytryptamine receptor 7 (Homo sapiens, UniProt P34969); experiment: Inverse agonist activity at 5-HT7 receptor (unknown origin) by cAMP functional assay
[22] = target: T1, 5-hydroxytryptamine receptor 2A (Homo sapiens, UniProt P28223); experiment: Displacement of [3H]-ketanserin from human 5-HT2A receptor by competitive radioligand binding assay
[23] = Protein binding in human plasma assessed as unbound fraction; type: ADME, cell-free
[24] = Clearance in rat plasma at 10 mg/kg, po; type: ADME, organism-based
[25] = In vivo antagonist activity at 5-HT7 receptor in po dosed rat assessed as inhibition of 5-CT induced hypothermia compound administered 20 mins prior to 5-CT injection and measured after 1 hr; type: functional; conditions: 1.333 h, time 80 min
[26] = Ratio of drug level in rat brain to plasma at 10 mg/kg, po; type: ADME, organism-based; conditions: brain and plasma, read-out: BPR
[27] = target: 5-hydroxytryptamine receptor 2B (Homo sapiens, UniProt P41595); experiment: Displacement of [3H]-ketanserin from human 5-HT2B receptor by competitive radioligand binding assay
[28] = Clearance in rat at 1 mg/kg, iv; type: ADME, organism-based; conditions: in vivo
[29] = Protein binding in rat plasma assessed as unbound fraction; type: ADME, cell-free
[30] = Half life in rat plasma at 10 mg/kg, po; type: ADME, organism-based
[31] = AUC in rat at 1 mg/kg, iv; type: ADME, organism-based; parameters: dose 1 mg/kg; conditions: in vivo
[32] = Tmax in dog at 10 mg/kg, po; type: ADME, organism-based, Canis lupus familiaris; conditions: in vivo
[33] = target: T1, 5-hydroxytryptamine receptor 2A; experiment: Antagonist activity at 5-HT2A receptor (unknown origin) by calcium mobilization assay; type: functional; conditions: filed as antagonist
[34] = Oral bioavailability in monkey; type: ADME, organism-based, Macaca mulatta; conditions: rhesus monkey, in vivo
[35] = Tmax in rat at 3 mg/kg, po; type: ADME, organism-based; conditions: in vivo
[36] = system: Cytochrome P450; experiment: Inhibition of CYP450 (unknown origin) up to 10 uM; type: ADME, protein assay; conditions: human
[37] = target: T2, Adrenergic receptor alpha-1 (Rattus norvegicus, UniProt P15823+P23944+P43140); experiment: Displacement of […] from alpha1 adrenergic receptor in rat cortex membrane incubated for 60 mins by competitive radioligand binding assay; type: cell membranes
T2 sequence (P15823 whole entry): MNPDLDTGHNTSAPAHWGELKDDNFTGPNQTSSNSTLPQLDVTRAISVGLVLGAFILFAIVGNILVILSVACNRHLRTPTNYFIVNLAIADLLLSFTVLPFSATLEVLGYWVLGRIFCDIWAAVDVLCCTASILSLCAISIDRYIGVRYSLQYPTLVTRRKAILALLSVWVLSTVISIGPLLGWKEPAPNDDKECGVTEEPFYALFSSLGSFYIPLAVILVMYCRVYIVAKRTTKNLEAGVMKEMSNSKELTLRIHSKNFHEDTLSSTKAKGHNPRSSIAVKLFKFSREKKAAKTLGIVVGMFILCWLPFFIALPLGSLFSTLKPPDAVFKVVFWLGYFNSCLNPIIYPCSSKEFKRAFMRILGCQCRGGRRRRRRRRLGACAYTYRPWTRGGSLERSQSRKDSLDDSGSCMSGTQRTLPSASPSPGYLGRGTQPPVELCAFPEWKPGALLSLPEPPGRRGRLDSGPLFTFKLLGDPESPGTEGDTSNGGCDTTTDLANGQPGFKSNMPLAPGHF
T2 sequence (P23944 whole entry): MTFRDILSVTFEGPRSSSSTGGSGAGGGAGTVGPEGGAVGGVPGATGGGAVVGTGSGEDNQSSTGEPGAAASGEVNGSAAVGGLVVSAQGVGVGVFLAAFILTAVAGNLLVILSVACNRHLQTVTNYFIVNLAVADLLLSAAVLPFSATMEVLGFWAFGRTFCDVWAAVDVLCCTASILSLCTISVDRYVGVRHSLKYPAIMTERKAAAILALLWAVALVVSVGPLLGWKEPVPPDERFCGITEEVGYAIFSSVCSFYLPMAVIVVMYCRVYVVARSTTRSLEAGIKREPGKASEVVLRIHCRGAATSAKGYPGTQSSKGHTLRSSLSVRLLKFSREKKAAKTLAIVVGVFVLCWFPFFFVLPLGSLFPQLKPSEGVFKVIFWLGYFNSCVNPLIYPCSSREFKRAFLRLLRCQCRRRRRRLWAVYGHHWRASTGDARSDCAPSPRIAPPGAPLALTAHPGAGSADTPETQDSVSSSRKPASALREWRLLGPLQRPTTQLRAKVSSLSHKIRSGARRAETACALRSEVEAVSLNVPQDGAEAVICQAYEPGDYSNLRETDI
T2 sequence (P43140 whole entry): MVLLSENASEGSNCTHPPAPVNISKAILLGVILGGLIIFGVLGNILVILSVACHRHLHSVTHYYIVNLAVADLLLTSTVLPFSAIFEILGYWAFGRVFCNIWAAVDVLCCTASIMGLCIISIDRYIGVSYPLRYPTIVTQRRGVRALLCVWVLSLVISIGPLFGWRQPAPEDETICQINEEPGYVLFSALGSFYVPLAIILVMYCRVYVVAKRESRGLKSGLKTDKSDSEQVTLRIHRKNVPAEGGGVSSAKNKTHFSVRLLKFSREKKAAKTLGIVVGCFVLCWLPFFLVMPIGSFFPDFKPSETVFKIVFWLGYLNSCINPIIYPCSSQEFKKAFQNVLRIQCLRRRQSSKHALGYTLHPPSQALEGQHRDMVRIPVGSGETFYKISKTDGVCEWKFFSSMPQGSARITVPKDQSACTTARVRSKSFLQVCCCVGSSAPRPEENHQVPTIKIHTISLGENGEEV

[38] = Tmax in rat at 3 mg/kg, sc; type: ADME, organism-based; conditions: in vivo
[39] = Metabolic stability in rat liver microsomes assessed as half life; type: ADME, Microsome
[40] = Half life in rat brain at 10 mg/kg, po; type: ADME, organism-based
[41] = Half life in rat at 3 mg/kg, sc; type: ADME, organism-based; conditions: in vivo
[42] = AUC in rat plasma at 10 mg/kg, po; type: ADME, organism-based; parameters: dose 10 mg/kg
[43] = Efflux ratio of apparent permeability in human Caco2 cells; type: ADME, cell-based; conditions: Caco-2
[44] = Half life in rat at 1 mg/kg, iv; type: ADME, organism-based; conditions: in vivo
[45] = Plasma concentration that yields to require for maximal inhibition of 5-HT7 receptor mediated hypothermia in 5-CT-stimulated rat at 0.3 mg/kg, po compound administered 20 mins prior to 5-CT injection; type: organism-based
[46] = Tmax in rat brain at 10 mg/kg, po; type: ADME, organism-based
[47] = Half life in dog at 10 mg/kg, po; type: ADME, organism-based, Canis lupus familiaris; conditions: in vivo
[48] = Clearance in rat at 3 mg/kg, po; type: ADME, organism-based; conditions: in vivo
[49] = Cmax in dog at 10 mg/kg, po; type: ADME, organism-based, Canis lupus familiaris; parameters: route oral, dose 10 mg/kg; conditions: in vivo
[50] = Tmax in non-human primates at 5 mg/kg, po; type: ADME, organism-based; conditions: in vivo
[51] = Clearance in rat brain at 10 mg/kg, po; type: ADME, organism-based; conditions: in vivo
[52] = Ex vivo receptor occupancy at 5-HT2A receptor in orally dosed rat frontal cortex measured after 1 hr; type: functional; conditions: po
[53] = target: T3, 5-hydroxytryptamine receptor 2C (Homo sapiens, UniProt P28335); experiment: Displacement of [3H]-ketanserin from human 5-HT2C receptor by competitive radioligand binding assay
T3 sequence (P28335 whole entry): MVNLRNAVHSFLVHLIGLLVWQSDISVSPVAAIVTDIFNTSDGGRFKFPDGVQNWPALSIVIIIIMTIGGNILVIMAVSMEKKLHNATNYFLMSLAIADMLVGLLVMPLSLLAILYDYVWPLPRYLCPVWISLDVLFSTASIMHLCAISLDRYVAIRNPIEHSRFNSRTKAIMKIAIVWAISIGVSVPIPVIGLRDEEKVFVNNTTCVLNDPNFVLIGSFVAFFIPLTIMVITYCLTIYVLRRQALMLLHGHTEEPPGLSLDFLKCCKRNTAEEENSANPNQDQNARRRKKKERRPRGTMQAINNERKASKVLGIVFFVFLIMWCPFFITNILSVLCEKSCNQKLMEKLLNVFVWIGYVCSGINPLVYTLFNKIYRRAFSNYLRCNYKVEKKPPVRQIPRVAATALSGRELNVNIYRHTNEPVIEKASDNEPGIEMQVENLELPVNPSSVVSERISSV

[54] = Half life in rat at 3 mg/kg, po; type: ADME, organism-based; conditions: in vivo

Chain of 5-hydroxytryptamine receptor 2B (P41595 whole entry): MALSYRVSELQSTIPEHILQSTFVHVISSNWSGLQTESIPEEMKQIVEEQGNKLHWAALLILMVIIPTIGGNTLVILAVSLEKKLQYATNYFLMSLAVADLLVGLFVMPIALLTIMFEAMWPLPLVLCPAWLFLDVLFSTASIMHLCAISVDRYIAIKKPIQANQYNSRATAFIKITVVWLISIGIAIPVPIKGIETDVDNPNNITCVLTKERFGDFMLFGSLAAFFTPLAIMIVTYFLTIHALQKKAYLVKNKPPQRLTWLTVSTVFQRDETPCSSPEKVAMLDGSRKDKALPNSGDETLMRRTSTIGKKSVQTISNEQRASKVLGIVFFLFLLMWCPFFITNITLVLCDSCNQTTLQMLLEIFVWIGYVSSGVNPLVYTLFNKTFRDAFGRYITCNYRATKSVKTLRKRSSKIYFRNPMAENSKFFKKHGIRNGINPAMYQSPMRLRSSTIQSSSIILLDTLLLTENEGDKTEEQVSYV
T1 sequence (P28223 whole entry): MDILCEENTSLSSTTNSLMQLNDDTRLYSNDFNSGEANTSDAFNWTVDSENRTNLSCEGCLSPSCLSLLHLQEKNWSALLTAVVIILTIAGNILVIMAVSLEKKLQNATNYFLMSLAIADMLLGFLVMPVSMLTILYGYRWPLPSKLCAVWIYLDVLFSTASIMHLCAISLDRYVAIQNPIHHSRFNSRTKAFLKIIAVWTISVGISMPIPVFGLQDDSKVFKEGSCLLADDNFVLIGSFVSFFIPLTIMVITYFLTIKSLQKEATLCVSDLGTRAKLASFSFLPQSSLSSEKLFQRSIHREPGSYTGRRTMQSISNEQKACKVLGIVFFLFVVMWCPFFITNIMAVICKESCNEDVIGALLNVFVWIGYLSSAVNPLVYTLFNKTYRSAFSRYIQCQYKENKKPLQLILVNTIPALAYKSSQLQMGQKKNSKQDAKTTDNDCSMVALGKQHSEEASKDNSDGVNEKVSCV
Chain of 5-hydroxytryptamine receptor 7 (Rattus norvegicus, UniProt P32305) (P32305 whole entry): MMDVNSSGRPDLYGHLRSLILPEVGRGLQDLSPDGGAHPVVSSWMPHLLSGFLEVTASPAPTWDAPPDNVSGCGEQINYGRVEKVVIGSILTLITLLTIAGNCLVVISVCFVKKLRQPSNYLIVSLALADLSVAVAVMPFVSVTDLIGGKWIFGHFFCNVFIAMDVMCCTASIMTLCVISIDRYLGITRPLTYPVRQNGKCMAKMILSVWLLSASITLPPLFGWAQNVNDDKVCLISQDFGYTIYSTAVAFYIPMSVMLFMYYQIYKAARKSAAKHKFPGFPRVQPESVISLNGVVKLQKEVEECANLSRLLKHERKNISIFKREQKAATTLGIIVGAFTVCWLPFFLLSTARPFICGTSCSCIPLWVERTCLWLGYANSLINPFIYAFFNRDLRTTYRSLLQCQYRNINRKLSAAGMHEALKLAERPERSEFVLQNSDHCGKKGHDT
Chain of 5-hydroxytryptamine receptor 7 (Homo sapiens, UniProt P34969) (P34969 whole entry): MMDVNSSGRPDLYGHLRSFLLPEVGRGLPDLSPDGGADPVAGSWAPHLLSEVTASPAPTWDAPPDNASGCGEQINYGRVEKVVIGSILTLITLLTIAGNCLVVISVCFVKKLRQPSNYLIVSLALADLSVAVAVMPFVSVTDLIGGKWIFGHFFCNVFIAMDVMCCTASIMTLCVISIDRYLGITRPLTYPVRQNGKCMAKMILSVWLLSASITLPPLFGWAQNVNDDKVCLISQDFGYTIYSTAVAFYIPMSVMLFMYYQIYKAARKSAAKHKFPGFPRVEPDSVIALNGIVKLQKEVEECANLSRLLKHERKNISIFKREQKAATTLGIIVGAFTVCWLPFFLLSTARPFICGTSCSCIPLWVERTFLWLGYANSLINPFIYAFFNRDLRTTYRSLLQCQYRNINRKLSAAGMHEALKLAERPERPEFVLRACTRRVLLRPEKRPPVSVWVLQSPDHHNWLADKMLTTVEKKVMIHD

half-life [1]: > 1 h | Cmax [2]: 260 ng/mL and 940 nM | bioavailability [3]: 100% | AUC [4]: 7.7 µM·h | bioavailability [5]: 98% | AUC [6]: 9.2 µM·h | Ki [7]: 8 nM | half-life [8]: 11.4 h | Cmax [9]: 300 ng/mL | CL/F [10]: 6.67 mL/min | Cmax [11]: 190 ng/mL and 700 nM | Tmax [13]: 1 h | AUC [16]: 89 µM·h | Cmax [17]: 1080 ng/mL and 3.9 µM | Cmax [18]: 1680 ng/mL and 6.1 µM | bioavailability [20]: 98% | IC50 [21]: 100 nM | Ki [22]: 8 nM | fraction unbound [23]: 0.3 | CL/F [24]: 3.33 mL/min | Kp [26]: > 1 | Ki [27]: 19 nM | clearance [28]: 6.67 mL/min | fraction unbound [29]: 0.2 | half-life [30]: 6 h | AUC [31]: 2.8 µM·h | Tmax [32]: 0.5 h | pKb [33]: 8.1 | bioavailability [34]: 72% | Tmax [35]: 1.7 h | inhibition (INH) [36]: Not Active | Ki [37]: 170 nM | Tmax [38]: 0.75 h | half-life [39]: > 1 h | half-life [40]: 6.3 h | half-life [41]: 3.9 h | AUC [42]: 57 µM·h | efflux ratio [43]: 1.3 | half-life [44]: 3.4 h | concentration at 20 min [45]: 27 ng/mL | Tmax [46]: 1 h | half-life [47]: 10.6 h | CL/F [48]: 6.67 mL/min | Cmax [49]: 2000 ng/mL | Tmax [50]: 3 h | CL [51]: 0.1 L/h | Ki [53]: 49 nM | half-life [54]: 4.3 h
SMILES: CC(C)n1nc2c(c1-c1ccc(F)cc1)CCNCC2
Activity [12]: Non-Toxic | ED50 [14]: 0.3 mg/kg | selectivity ratio [15]: 30 | inhibition [19]: Active | ED50 [25]: 0.05 mg/kg | ED50 [52]: 0.8 mg/kg

Ki [7]: 20 nM | Ki [22]: 30 nM | Ki [27]: 20 nM | Ki [37]: 600 nM | Ki [53]: 30 nM
SMILES: c1ccc(-c2c3c(nn2C2CC2)CCNCC3)cc1

Ki [22]: 1 nM | Ki [27]: 4 nM | Ki [37]: 220 nM | Ki [53]: 45 nM
SMILES: Fc1ccc(-c2c3c(nn2C2CCC2)CCNCC3)cc1
